Reference: paper PMC12376128, “In vitro and In Vivo Drug Metabolism Analysis of BPI-460372 - A Covalent TEAD1/3/4 Inhibitor” (Current Drug Metabolism, 2025)
Like-named read-outs stand apart in the source and are kept apart here.

Legend:
monkey hepatocytes = test: Metabolism and metabolite formation in hepatocytes; format: in vitro ADME, cynomolgus monkey;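 as to Area Ratio T4 h: peak area of analyte divided by internal standard peak area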
Excerpt: (§1) All the samples were duplicates.

dog hepatocytes = test: Metabolism and metabolite formation in hepatocytes; format: in vitro ADME, beagle dog;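 as to Area Ratio T0 h: peak area of analyte divided by internal standard peak area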;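 as to Area Ratio T4 h: peak area of analyte divided by internal standard peak area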
Excerpt: as §1

rat hepatocytes = test: Metabolism and metabolite formation in hepatocytes; format: in vitro ADME, SD rat;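 as to Area Ratio T0 h: peak area of analyte divided by internal standard peak area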
Excerpt: as §1

mouse hepatocytes = test: Metabolism and metabolite formation in hepatocytes; format: in vitro ADME, ICR mouse;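 as to Area Ratio T0 h: peak area of analyte divided by internal standard peak area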;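 as to Area Ratio T4 h: peak area of analyte divided by internal standard peak area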
Excerpt: as §1

human hepatocytes [1] = conditions: 0 h
human hepatocytes [2] = test: Metabolism and metabolite formation in hepatocytes
[3] = Metabolite identification in rat plasma, urine, feces and bile; format: in vivo, SD rats
Procedure: (§2) The plasma samples were acquired from SD rats (n=6, 3 female and 3 male) and beagle dogs (n=6, 3 female and 3 male) after administration of 12 mg/kg and 8 mg/kg of BPI-460372, respectively. The rat urine, feces, and bile samples were acquired in SD rats after administration of 6 mg/kg of BPI-460372.
(§3) Equal volume from each rat was pooled together to get 1 male and 1 female 0-24 h plasma samples. An equal percentage by volume of individual urine sample (0-8, 8-24, and 24-48 h) from 3 female and 3 male rats was pooled by time interval across rats, respectively, resulting in two pooled urine samples (1 male and 1 female). An equal percentage by weight of individual feces samples (0-8, 8-24, and 24-48 h) was pooled by time interval across female and male rats, resulting in two pooled fecal samples. An equal percentage by volume of individual bile samples (0-4, 4-8, 8-24, and 24-48 h) was pooled by time interval across female and male rats, resulting in two pooled bile samples. […] Equal volumes from 3 female and 3 male rats were pooled together to get two 0-48 h plasma samples. For blank samples of plasma, urine, and bile, equal volume was pooled across subjects. For a blank sample of feces, equal weight was pooled across rats.
(§4) The pooled plasma, feces, and bile samples were extracted by adding 3-fold volume of acetonitrile, and the mixture was vortexed (1 min) and sonicated (1 min) before centrifugation (7220 g, 5 min). The pooled urine samples were centrifuged (7220 g, 5 min). Then the supernatant was transferred into a clean tube and evaporated to dryness under the nitrogen stream. The residues were redissolved with an appropriate volume of acetonitrile/water (20: 80, v: v). After centrifugation, the redissolved solution was transferred into an HPLC vial for UHPLC-Orbitrap-HRMS (15000 g, 10 min, 4°C).

[4] = Metabolite identification in dog plasma; format: in vivo, beagle dogs; conditions: oral 8 mg/kg BPI-460372, average of male and female pooled samples
Procedure: as §2, §3, §4

TEAD proteins = test: Covalent binding to TEAD proteins (in vitro); conditions: in vitro studies
TEAD palmitoylation = test: Inhibition of TEAD palmitoylation (in vitro); format: biochemical; conditions: in vitro studies
[5] = Formation of M335 in HLMs with and without NADPH; format: in vitro ADME, human; conditions: 45 minutes of incubation of BPI-460372 with HLMs
[6] = tested on: cysteine S-conjugate β-lyase; test: Effect of cysteine S-conjugate β-lyase inhibitor AOAA on the metabolism of BPI-460372 (rat urine); conditions: 20 mg/kg BPI-460372 + 100 mg/kg AOAA, once daily 21 days, urine 0-48 h on day 21
Procedure: To investigate the effect of cysteine S-conjugate β-lyase on the metabolism of BPI-460372, SD rats were treated with 20 mg/kg BPI-460372 alone (n=3, male) or 20 mg/kg BPI-460372 coadministration with 100 mg/kg cysteine S-conjugate β-lyase inhibitor AOAA (n=3, male), once daily for 21 consecutive days. On day 21, urine samples were collected at 0-8, 8-24 and 24-48 h. The same percentage of urine samples from each rat was taken at these three time intervals and mixed. The samples were analyzed by LC-MS/MS and then semi-quantified using the peak area ratio of analyte versus IS.

[7] = set-up: method as in PMID 32250617; conditions: mouse whole blood, compared with compound 18 (acrylamide warhead); cited from earlier work
[8] = set-up: method as in PMID 32250617; conditions: dog whole blood, compared with compound 18 (acrylamide warhead); cited from earlier work
[9] = set-up: method as in PMID 32250617; conditions: human whole blood, compared with compound 18 (acrylamide warhead); cited from earlier work
CYPs and GSTs = tested on: CYPs and GSTs; set-up: method as in earlier work; conditions: multiple CYPs and GSTs pathways; cited from earlier work
[10] = oral 6 mg/kg BPI-460372, average of male and female pooled samples

## CCOc1ccc2ccc(=O)oc2c1 [7-EC, 7-ethoxycoumarin, reference compound]
Monkey hepatocytes; monkey hepatocytes, 7-EC incubation, 0 h
  Area Ratio T0 h: 2.65E+07
Monkey hepatocytes; monkey hepatocytes, 7-EC incubation, 4 h
  Area Ratio T4 h: 9.51E+04
Monkey hepatocytes; monkey, hepatocytes
  Proportion of 7-EC remaining in hepatocytes after 4 h incubation: 0.36%
Dog hepatocytes; dog hepatocytes, 7-EC incubation, 0 h
  Area Ratio T0 h: 2.18E+07
Dog hepatocytes; dog hepatocytes, 7-EC incubation, 4 h
  Area Ratio T4 h: 1.01E+05
Dog hepatocytes; dog, hepatocytes
  Proportion of 7-EC remaining in hepatocytes after 4 h incubation: 0.46%
Rat hepatocytes; rat hepatocytes, 7-EC incubation, 0 h
  Area Ratio T0 h: 2.64E+07
Rat hepatocytes; rat hepatocytes, 7-EC incubation, 4 h
  Area Ratio T4 h: 6.62E+06
Rat hepatocytes; rat, hepatocytes
  Proportion of 7-EC remaining in hepatocytes after 4 h incubation: 25.08%
Mouse hepatocytes; mouse hepatocytes, 7-EC incubation, 0 h
  Area Ratio T0 h: 2.39E+07
Mouse hepatocytes; mouse hepatocytes, 7-EC incubation, 4 h
  Area Ratio T4 h: 1.46E+05
Mouse hepatocytes; mouse, hepatocytes
  Proportion of 7-EC remaining in hepatocytes after 4 h incubation: 0.61%
Human hepatocytes [1]
  Area Ratio T0 h: 3.36E+07
Human hepatocytes [2]; human hepatocytes, 7-EC incubation, 4 h
  Area Ratio T4 h: 7.50E+06
Human hepatocytes [2]; human, hepatocytes
  Proportion of 7-EC remaining in hepatocytes after 4 h incubation: 22.32%

## O=c1n(-c2ccc(C(F)(F)F)cc2)c2nccnc2n1C1CNC1 [M335 (BPI-460608)]
Monkey hepatocytes; cynomolgus monkey hepatocytes, 10 µM BPI-460372, 4 h incubation
  UV (314 nm) Peak Areas Relative Abundance: 16.99%
Dog hepatocytes; beagle dog hepatocytes, 10 µM BPI-460372, 4 h incubation
  UV (314 nm) Peak Areas Relative Abundance: 18.82%
Rat hepatocytes; SD rat hepatocytes, 10 µM BPI-460372, 4 h incubation
  UV (314 nm) Peak Areas Relative Abundance: 3.9%
Mouse hepatocytes; ICR mouse hepatocytes, 10 µM BPI-460372, 4 h incubation
  UV (314 nm) Peak Areas Relative Abundance: 26.4%
[3]; [10]
  Relative abundance of MS peak areas, Rat Bile 0-48 h: 0.070%
  Relative abundance of MS peak areas, Rat Feces 0-48 h: 4.83%
  Relative abundance of MS peak areas, Rat Urine 0-48 h: 13.23%
[3]; oral 12 mg/kg BPI-460372, average of male and female pooled samples
  Relative abundance of MS peak areas, Rat Plasma 0-24 h: 2.48%
[4]
  Relative abundance of MS peak areas, Dog Plasma 0-48 h: 8.45%
TEAD proteins
  Covalent binding to TEAD proteins: do not covalently bind
TEAD palmitoylation
  Activity: inhibition of TEAD palmitoylation: inactive
[5]
  Formation of M335 without NADPH versus HLMs+NADPH group: comparable
Human hepatocytes [2]; human hepatocytes, 10 µM BPI-460372, 4 h incubation
  UV (314 nm) Peak Areas Relative Abundance: 11.47%
[6]
  Area ratio in rat urine, mean (%CV): 1.41 (48)

## C=C(F)C(=O)N1CCN(c2nc(OC[C@@H]3CCCN3C)nc3c2CCN(c2cccc4cccc(Cl)c24)C3)C[C@@H]1CC#N [Adagrasib]
[7]
  Stability in whole blood: higher stability
[8]
  Stability in whole blood: higher stability
[9]
  Stability in whole blood: higher stability

## C=CC(=O)N1C[C@H](Nc2ncnc3[nH]ccc23)CC[C@@H]1C [Ritlecitinib]
CYPs and GSTs
  Contribution of any single route to the total metabolism: ≤ 25%
